# Source: patent KR20210056931A, “피리메타민을 유효성분으로 포함하는 면역 관련 질환의 치료 또는 예방용 약학 조성물” (priority 2019, dated 2021)
# Tests used:
# [1] = system: rheumatoid arthritis model, DBA-1J Mice [류마티스 관절염 모델]; assay: Histopathological examination in rheumatoid arthritis animal model, dose regimen study, Experiment 6; format: in vivo, mouse; conditions: Day 14
# [2] = Hematological examination, Experiment 6-4; format: in vivo, mouse; conditions: for %BASO / %EOS / %LUC / %LYM / %MONO / %NEUT / %RETIC / HCT / HDW / HGB / MCH / MCV / MPV / PLT / RBC / RDW / WBC: Day 14
# [3] = G3: MTX 2 mpk qd PO, G12: Py 15 mpk qd PO
smiles,measurement,setting,value
"CCc1nc(N)nc(N)c1-c1ccc(Cl)cc1 [피리메타민, Pyrimethamine]",Therapeutic efficacy by histopathology (in words),[1],농도 의존적으로 치료 효능을 보였다
same,Bone destruction,[1]; G7: Py 1 mg/kg/day QD IP,2.5±0.5
same,Cartilage damage,[1]; G7: Py 1 mg/kg/day QD IP,2.2±1.0
same,"Histopathological examination, total",[1]; G7: Py 1 mg/kg/day QD IP,7.7±1.5
same,Synovium proliferation,[1]; G7: Py 1 mg/kg/day QD IP,3.0±0.0
same,Bone destruction,[1]; G8: Py 1 mg/kg/day BID PO,2.8±0.4
same,Cartilage damage,[1]; G8: Py 1 mg/kg/day BID PO,2.3±1.2
same,"Histopathological examination, total",[1]; G8: Py 1 mg/kg/day BID PO,7.8±2.4
same,Synovium proliferation,[1]; G8: Py 1 mg/kg/day BID PO,2.7±0.8
same,Bone destruction,[1]; G9: Py 1 mg/kg/day QD PO,2.5±0.8
same,Cartilage damage,[1]; G9: Py 1 mg/kg/day QD PO,2.3±0.8
same,"Histopathological examination, total",[1]; G9: Py 1 mg/kg/day QD PO,7.8±1.6
same,Synovium proliferation,[1]; G9: Py 1 mg/kg/day QD PO,3.0±0.0
same,Bone destruction,[1]; G10: Py 3 mg/kg/day BID PO,2.8±0.4
same,Cartilage damage,[1]; G10: Py 3 mg/kg/day BID PO,2.0±0.6
same,"Histopathological examination, total",[1]; G10: Py 3 mg/kg/day BID PO,7.8±0.8
same,Synovium proliferation,[1]; G10: Py 3 mg/kg/day BID PO,3.0±0.0
same,Bone destruction,[1]; G11: Py 5 mg/kg QD PO,2.0±0.9
same,Cartilage damage,[1]; G11: Py 5 mg/kg QD PO,1.7±0.8
same,"Histopathological examination, total",[1]; G11: Py 5 mg/kg QD PO,6.7±1.5
same,Synovium proliferation,[1]; G11: Py 5 mg/kg QD PO,3.0±0.0
same,Bone destruction,[1]; G12: Py 15 mg/kg/day QD PO,2.2±0.4
same,Cartilage damage,[1]; G12: Py 15 mg/kg/day QD PO,1.5±0.5
same,"Histopathological examination, total",[1]; G12: Py 15 mg/kg/day QD PO,6.3±0.8
same,Synovium proliferation,[1]; G12: Py 15 mg/kg/day QD PO,2.7±0.5
same,%BASO,[2]; [3],0.4±0.3%
same,%EOS,[2]; [3],1.5±0.4%
same,%LUC,[2]; [3],1.5±1%
same,%LYM,[2]; [3],40.4±4.1%
same,%MONO,[2]; [3],4.2±0.8%
same,%NEUT,[2]; [3],52±5.2%
same,%RETIC,[2]; [3],3.85±0.63%
same,HCT,[2]; [3],46±2.5%
same,HDW,[2]; [3],2.15 ± 0.13 g/dL
same,HGB,[2]; [3],12.6 ± 0.7 g/dL
same,MCH,[2]; [3],13.1 ± 0.4 pg
same,MCV,[2]; [3],47.8 ± 1.5 fL
same,MPV,[2]; [3],6.3 ± 0.1 fL
same,PLT,[2]; [3],1211±176 10^3 cell/μL
same,RBC,[2]; [3],9.63±0.75 10^6 cell/μL
same,RDW,[2]; [3],24.2±2.2%
same,WBC,[2]; [3],3.58±1.19 10^3 cell/μL
same,%BASO,[2]; G7: Py 1 mpk qd IP,0.8±0.1%
same,%EOS,[2]; G7: Py 1 mpk qd IP,1.2±0.2%
same,%LUC,[2]; G7: Py 1 mpk qd IP,2.8±1.3%
same,%LYM,[2]; G7: Py 1 mpk qd IP,49.2±3.5%
same,%MONO,[2]; G7: Py 1 mpk qd IP,6.1±2.1%
same,%NEUT,[2]; G7: Py 1 mpk qd IP,40±3.5%
same,%RETIC,[2]; G7: Py 1 mpk qd IP,5.1±0.9%
same,HCT,[2]; G7: Py 1 mpk qd IP,43.6±3.2%
same,HDW,[2]; G7: Py 1 mpk qd IP,2.33 ± 0.15 g/dL
same,HGB,[2]; G7: Py 1 mpk qd IP,11.9 ± 0.7 g/dL
same,MCH,[2]; G7: Py 1 mpk qd IP,12.3 ± 0.2 pg
same,MCV,[2]; G7: Py 1 mpk qd IP,45.1 ± 0.8 fL
same,MPV,[2]; G7: Py 1 mpk qd IP,7.5 ± 0.6 fL
same,PLT,[2]; G7: Py 1 mpk qd IP,403±182 10^3 cell/μL
same,RBC,[2]; G7: Py 1 mpk qd IP,9.68±0.63 10^6 cell/μL
same,RDW,[2]; G7: Py 1 mpk qd IP,22±2.8%
same,WBC,[2]; G7: Py 1 mpk qd IP,5.4±2.01 10^3 cell/μL
same,%BASO,[2]; G8: Py 1 mpk qd PO,0.6±0.2%
same,%EOS,[2]; G8: Py 1 mpk qd PO,1.6±0.5%
same,%LUC,[2]; G8: Py 1 mpk qd PO,2±0.8%
same,%LYM,[2]; G8: Py 1 mpk qd PO,45±8.1%
same,%MONO,[2]; G8: Py 1 mpk qd PO,4.7±1.2%
same,%NEUT,[2]; G8: Py 1 mpk qd PO,46.3±9.0%
same,%RETIC,[2]; G8: Py 1 mpk qd PO,6.74±3.63%
same,HCT,[2]; G8: Py 1 mpk qd PO,44.8±2.5%
same,HDW,[2]; G8: Py 1 mpk qd PO,2.31 ± 0.25 g/dL
same,HGB,[2]; G8: Py 1 mpk qd PO,12.3 ± 0.6 g/dL
same,MCH,[2]; G8: Py 1 mpk qd PO,12.6 ± 0.4 pg
same,MCV,[2]; G8: Py 1 mpk qd PO,45.6 ± 0.9 fL
same,MPV,[2]; G8: Py 1 mpk qd PO,6.3 ± 0.1 fL
same,PLT,[2]; G8: Py 1 mpk qd PO,1380±72 10^3 cell/μL
same,RBC,[2]; G8: Py 1 mpk qd PO,9.82±0.67 10^6 cell/μL
same,RDW,[2]; G8: Py 1 mpk qd PO,21.5±3%
same,WBC,[2]; G8: Py 1 mpk qd PO,2.67±0.58 10^3 cell/μL
same,Hematotoxicity (in words),"[2]; G7, intraperitoneal injection",혈소판 수치가 감소하는 독성이 나타났다
same,Hematotoxicity (in words),[2]; oral groups G8-G12,혈액 독성이 나타나지 않음
